# Reference: US20180340225A1 (SHANGHAI INSTITUTE FOR ENDOCRINE AND METABOLIC DISEASES, priority 2015, published 2018)
# Tested on: patients with Type 2 diabetes
# Assay: Clinical efficacy indexes before and after 3 months of Acarbose treatment in naïve patients with Type 2 diabetes, by enterotype
# Assay type: in vivo, human
# Conditions: Prevotella enterotype, After treatment
# Description: For naïve patients with Type 2 diabetes, their liver and kidney functions, blood glucose and lipid levels, intestinal hormones, inflammatory factors, and cardiovascular risk-related factors are evaluated before medication. Their stool, urine, and blood samples are retained. […] The patients' blood glucose levels are followed up every month within 3 months, and the medication is adjusted according to the blood glucose level. Three months later, the pre-medication assessment is repeated, and the urine, stool and blood samples are retained.
# a) A randomized, opened, positive control method is adopted to collect the naïve patients with Type 2 diabetes and normal controls of their spouses. […] The newly diagnosed patients of Type 2 diabetes without medication receive routine examinations, including the retention of stool and blood samples.
# i. Draw venous blood 15 ml under fasting condition, of which, 1.5 ml is used for detection of plasma glucose, 6.5 ml is added to ordinary tubes (including aprotinin, DPPV inhibitor), and 6.5 ml is added to anticoagulant tubes (including heparin and RNA later)
# ii. Centrifuge the blood in ordinary tube at 4° C., when serum is separated out, draw about 3 ml, and divide to three 1.5 ml Eppendorf on average, then tighten the tube caps;
# iii. Centrifuge the anticoagulation blood immediately at 4° C., to separate out about 3 ml of plasma, then divide to three 1.5 ml imported RNAase free Eppendorf tubes on average, […]
smiles,measurement,value
C[C@H]1O[C@H](O[C@H]2[C@H](O)[C@@H](O)[C@@H](O[C@H]3[C@H](O)[C@@H](O)C(O)O[C@@H]3CO)O[C@@H]2CO)[C@H](O)[C@@H](O)[C@@H]1N[C@H]1C=C(CO)[C@@H](O)[C@H](O)[C@H]1O (stereo partly shown) [Acarbose],AKP Mean,77.5
same,ALB Mean,44.39
same,ALT Mean,44.36
same,APOA Mean,1.267
same,APOB Mean,0.9273
same,AST Mean,29.36
same,Adipisin Mean,3221619.467
same,Adpn Mean,10063264.07
same,BMI Mean,25.11
same,BW Mean,72.63
same,CP0 Mean,2.485
same,CP30 Mean,2.802
same,CP60 Mean,3.609
same,CP120 Mean,5.305
same,CP180 Mean,4.735
same,DBIL Mean,6.293
same,DBP Mean,74.93
same,ENDOM Mean,14.27
same,Endothelin Mean,4.776
same,FABP3 Mean,2147
same,FABP4 Mean,10510.4
same,FGF1M Mean,24.33
same,FGF2M Mean,13.67
same,FGF19M Mean,19.3
same,FGF23M Mean,43.47
same,G30 Mean,7.601
same,G60 Mean,9.055
same,G120 Mean,9.171
same,G180 Mean,7.853
same,GIP0 Mean,57.4
same,GIP30 Mean,208.4
same,GIP60 Mean,217.2
same,GIP120 Mean,227.8
same,GIP180 Mean,194.8
same,GMCSFM Mean,67.97
same,GO Mean,6.712
same,HB Mean,147.8
same,HBA1C Mean,6.313
same,HDL Mean,2.869
same,HGF Mean,400.9
same,HIP Mean,97.21
same,HOMA.IR Mean,3.327
same,IFNr1 Mean,38.8
same,IL1B Mean,0.9107
same,IL1bM Mean,22.23
same,IL2M Mean,58.77
same,IL4M Mean,31.074
same,IL5M Mean,43.97
same,IL6M Mean,40.53
same,IL6 Mean,2.665
same,IL8 Mean,15.44
same,IL9M Mean,84.9
same,IL10 Mean,1.798
same,IL12 Mean,9.944
same,IL13 Mean,279.4
same,IL15M Mean,291.8
same,IL17AM Mean,32.03
same,IL17EM Mean,21.23
same,IL17FM Mean,232.6
same,IL21 Mean,34.47
same,IL22M Mean,30.5
same,IL23M Mean,41.7
same,IL27 Mean,73.1
same,IL28a Mean,18.37
same,IL31M Mean,112.3
same,IL33M Mean,43.5
same,INS0 Mean,11.734
same,INS30 Mean,14.21
same,INS60 Mean,23.404
same,INS120 Mean,27.84
same,INS180 Mean,20.88
same,K Mean,4.054
same,LBP Mean,17.616
same,LDL Mean,1.169
same,LEPTIN Mean,4522
same,LPA Mean,214.8
same,Lymph Mean,28.21
same,MCP1 Mean,252.8
same,MIP3A Mean,29.94
same,NEU Mean,63.59
same,NGAL Mean,174248.3333
same,NGF Mean,2.434
same,Na Mean,142.2
same,PAI1 Mean,61006.73333
same,PDGFAA Mean,4507
same,PDGFAABB Mean,24006.8
same,PP0 Mean,69.67
same,PP30 Mean,376.7
same,PP60 Mean,318.92
same,PP120 Mean,260.1
same,PP180 Mean,204.7
same,RANTES Mean,47562.53333
same,RBC Mean,4.945
same,RCv Mean,0.4421
same,SBP Mean,119.8
same,TBIL Mean,14.9
same,TC Mean,4.883
same,TG Mean,1.694
same,TNFBM Mean,44.7
same,TNFa Mean,4.572
same,TPRO Mean,73.55
same,Trophonin M Mean,17.9
same,WAIST Mean,88.93
same,WBC Mean,6.146
same,WHR Mean,0.9136
same,bun Mean,326.5
same,creatine Mean,67.42
same,crp Mean,19.638
same,egf Mean,267.604
same,fetuinA Mean,417.3
same,fgf1 Mean,13.79
same,fgf2 Mean,43.98
same,fgf21M Mean,97.93
same,fgf21 Mean,0.296
same,monocyte Mean,5.829
same,mpo Mean,467.3
same,oscatinM Mean,101.1
same,pCP0 Mean,1066
same,pCP30 Mean,1362
same,pCP60 Mean,1935.42
same,pCP120 Mean,2723.04
same,pCP180 Mean,2526
same,pGLP10 Mean,3.644
same,pGLP130 Mean,11.41
same,pGLP160 Mean,13.72
same,pGLP1120 Mean,9.07
same,pGLP1180 Mean,6.458
same,pHOMA.IR Mean,2.717
same,pgh0 Mean,53.4025
same,pgh30 Mean,64.28
same,pgh60 Mean,56.35
same,pgh120 Mean,42.5275
same,pgh0180 Mean,50.87
same,pgluc0 Mean,39.2
same,pgluc30 Mean,41.17
same,pgluc60 Mean,36.68
same,pgluc120 Mean,29.63
same,pgluc180 Mean,30.43
same,pins0 Mean,416.3
same,pins30 Mean,639.9
same,pins60 Mean,969
same,pins120 Mean,1373
same,pins180 Mean,1153
same,platelet Mean,206.3
same,ppyy0 Mean,43.57
same,ppyy30 Mean,64.34
same,ppyy60 Mean,56.78
same,ppyy120 Mean,54.02
same,ppyy180 Mean,51.59
same,rGT Mean,43.12
same,resistin Mean,25013.66667
same,sicam1 Mean,123
same,svcam1 Mean,545.498
same,urea Mean,4.954
same,vegfa Mean,340.2
same,vegfc Mean,128.7
same,vegfd Mean,195.1
